Data: US9770446B2, “Piperidine urea derivatives” (MERCK PATENT GMBH, priority 2013, dated 2017)

How the values were obtained:
[1] = target: T1, GST-tagged Tnks-2 (873-1166 aa) (Homo sapiens, UniProt Q9H2K2); test: TNKS2 activity ELISA (autoparsylation assay); type: biochemical
T1 construct: GST-tagged Tnks-2 (873-1166 aa, prepared in-house); made in house
Procedure: (§1) Description of the TNKS1 and TNKS2 ELISA Assay
(§2) Biochemical Activity Testing of TNKS 1 and 2: Activity ELISA (Autoparsylation Assay)
(§3) For analysis of autoparsylation activity of TNKS 1 and 2 an activity ELISA iss performed: In the first step GST tagged TNKS is captured on a Glutathione coated plate. Then the activity assay with biotinylated NAD is performed in the absence/presence of the compounds. During the enzymatic reaction GST tagged TNKS transfers biotinylated ADP-ribose to itself from biotinylated NAD as co-substrate. For the detection streptavidin-HRP conjugate is added that binds to the biotinylated TNKS and is thereby captured to the plates. The amount of biotinylated resp. autoparsylated TNKS is detected with a luminescence substrate for HRP. The level of the luminescence signal correlates directly with the amount of autoparsylated TNKS and therefore with activity of TNKS.
(§4) The activity ELISA is performed in 384 well Glutathione coated microtiter plates (Express capture Glutathione coated plate, Biocat, Heidelberg, Germany). The plates are pre-equilibrated with PBS. Then the plates are incubated with 50 μl 20 ng/well GST-tagged Tnks-1 (1023-1327 aa, prepared in-house), respectively GST-tagged Tnks-2 (873-1166 aa, prepared in-house) in assay buffer (50 mM HEPES, 4 mM Mg-chloride, 0.05% Pluronic F-68, 2 mM DTT, pH 7.7) overnight at 4° C. The plates are washed 3 times with PBS-Tween-20. The wells are blocked by incubation at room temperature for 20 minutes with 50 μl blocking buffer (PBS, 0.05% Tween-20, 0.5% BSA). Afterwards the plates are washed 3 times with PBS-Tween-20. The enzymatic reaction is performed in 50 μl reaction solution (50 mM HEPES, 4 mM Mg-chloride, 0.05% Pluronic F-68, 1.4 mM DTT, 0.5% DMSO, pH 7.7) with 10 μM bio-NAD (Biolog, Life science Inst., Bremen, Germany) as co-substrate in the absence or presence of the test compound (10 dilution concentrations) for 1 hour at 30° C. The reaction is stopped by 3 times washing with PBS-Tween20. For the detection 50 μl of 20 ng/μl Streptavidin, HRP conjugate (MoBiTec, Göttingen, Germany) in PBS/0.05% Tween-20/0.01% BSA are added and the plates are incubated for 30 minutes at room temperature. After three times washing with PBS-Tween-20 50 μl of SuperSignal ELISA Femto Maximum sensitivity substrate solution (ThermoFisherScientific (Pierce), Bonn, Germany) are added. Following a 1 minute incubation at room temperature luminescence signals are measured with an Envision multimode reader (Perkin Elmer LAS Germany GmbH) at 700 nm. The full value used is the inhibitor-free reaction. The pharmacological zero value used is XAV-939 (Tocris) in a final concentration of 5 μM. The inhibitory values (IC50) are determined using either the program Symyx Assay Explorer® or Condosseo® from GeneData.

[2] = target: T2, GST-tagged Tankyrase-1 (1023-1327 aa) (Homo sapiens, UniProt O95271); test: Tankyrase 1 autoparsylation HTRF enzyme assay; type: biochemical; settings: read-out: IC50 TNKS1 enzyme assay
T2 construct: GST-tagged Tankyrase-1 (1023-1327 aa)
Procedure: (§5) Biochemical activity testing of Tankyrase 1 and 2: Autoparsylation assay
(§6) The autoparsylation assay is run in two steps: the enzymatic reaction in which GST-tagged Tankyrase-1, resp Tankyrase-2 transferred biotinylated ADP-ribose to itself from biotinylated NAD as co-substrate and the detection reaction where a time resolved FRET between cryptate labelled anti-GST bound to the GST tag of the enzyme and Xlent® labelled-streptavidin bound the biotin-parsylation residue is analysed. The autoparsylation activity was detectable directly via the increase in HTRF signal.
(§7) The autoparsylation assay is performed as 384-well HTRF® (Cisbio, Codolet, France) assay format in Greiner low volume nb 384-well microtiter plates and is used for high throughput screen. 250 nM GST-tagged Tankyrase-1 (1023-1327 aa), respectively about 250 nM GST-tagged Tankyrase-2 (873-1166 aa) and 5 μM bio-NAD (Biolog, Life science Inst., Bremen, Germany) as co-substrate are incubated in a total volume of 5 μl (50 mM HEPES, 4 mM Mg-chloride, 0.05% Pluronic F-68, 1.4 mM DTT, 0.5% DMSO, pH 7.7) in the absence or presence of the test compound (10 dilution concentrations) for 90 min at 30° C. The reaction is stopped by the addition of 1 μl 50 mM EDTA solution. 2 μl of the detection solution (1.6 μM SA-Xlent® (Cisbio, Codolet, France), 7.4 nM Anti-GST-K® (Eu-labelled anti-GST, Cisbio, Codolet, France) in 50 mM HEPES, 800 mM KF, 0.1% BSA, 20 mM EDTA, 0.1% CHAPS, pH 7.0) are added. After 1 h incubation at room temperature the HTRF is measured with an Envision multimode reader (Perkin Elmer LAS Germany GmbH) at excitation wavelength 340 nm (laser mode) and emission wavelengths 615 nm and 665 nm. The ratio of the emission signals is determined. The full value used is the inhibitor-free reaction. The pharmacological zero value used is XAV-939 (Tocris) in a final concentration of 5 μM. The inhibitory values (IC50) are determined using either the program Symyx Assay Explorer® or Condosseo® from GeneData.

[3] = target: T3, GST-tagged Tankyrase-2 (873-1166 aa) (Homo sapiens, UniProt Q9H2K2); test: Tankyrase 2 autoparsylation HTRF enzyme assay; type: biochemical; settings: read-out: IC50 TNKS2 enzyme assay
T3 construct: GST-tagged Tankyrase-2 (873-1166 aa)
Procedure: as §5, §6, §7

[4] = target: T4, GST-tagged Tnks-1 (1023-1327 aa) (Homo sapiens, UniProt O95271); test: TNKS1 activity ELISA (autoparsylation assay); type: biochemical
T4 construct: GST-tagged Tnks-1 (1023-1327 aa, prepared in-house); made in house
Procedure: as §1, §2, §3, §4

Tankyrase = test: Cellular inhibition of Tankyrase: Axin2 level in DLD1 cells (Luminex); type: cell-based; settings: 24 hours, Axin2 increase, read-out: EC50 [M] TNKS cellular assay
Procedure: Measurement of Cellular Inhibition of Tankyrase
Since Tankyrases have been described to modulate cellular level of Axin2 (Huang et al., 2009; Nature) the increase of Axin2 level is used as read-out for determination of cellular inhibition of Tankyrases in a Luminex based assay.
Cells of the colon carcinoma cell line DLD1 are plated in 96 well plates with 1.5×10^4 cells per well. Next day, cells are treated with a serial dilution of test compound in seven steps as triplicates with a final DMSO concentration of 0.3%. After 24 hours, cells are lysed in lysis buffer (20 mM Tris/HCl pH 8.0, 150 mM NaCl, 1% NP40, 10% Glycerol) and lysates are cleared by centrifugation through a 96 well filter plate (0.65 μm). Axin2 protein is isolated from cell lysates by incubation with a monoclonal anti-Axin2 antibody (R&D Systems #MAB6078) that is bound to fluorescent carboxybeads. Then, bound Axin2 is specifically detected with a polyclonal anti-Axin2 antibody (Cell Signaling #2151) and an appropriate PE-fluorescent secondary antibody. The amount of isolated Axin2 protein is determined in a Luminex^200 machine (Luminex Corporation) according to the manufacturer's instruction by counting 100 events per well. Inhibition of Tankyrase by test compounds results in higher levels of Axin2 which directly correlates with an increase of detectable fluorescence. As controls cells are treated with solvent alone (neutral control) and with a Tankyrase reference inhibitor IWR-2 (3E-06 M) which refers as control for maximum increase of Axin2. For analysis, the obtained data are normalized against the untreated solvent control and fitted for determination of the EC50 values using the Assay Explorer software (Accelrys).

T4 sequence (O95271 1023-1327): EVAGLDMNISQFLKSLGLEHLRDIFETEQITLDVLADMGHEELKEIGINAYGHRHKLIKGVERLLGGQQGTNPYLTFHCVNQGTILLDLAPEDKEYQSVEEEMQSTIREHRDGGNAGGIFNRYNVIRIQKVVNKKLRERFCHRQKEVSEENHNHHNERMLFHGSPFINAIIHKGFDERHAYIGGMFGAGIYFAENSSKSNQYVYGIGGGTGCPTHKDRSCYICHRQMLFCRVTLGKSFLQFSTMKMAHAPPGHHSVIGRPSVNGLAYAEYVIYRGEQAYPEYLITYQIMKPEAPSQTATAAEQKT
T2 sequence (O95271 1023-1327): as above
T1 sequence (Q9H2K2 873-1166): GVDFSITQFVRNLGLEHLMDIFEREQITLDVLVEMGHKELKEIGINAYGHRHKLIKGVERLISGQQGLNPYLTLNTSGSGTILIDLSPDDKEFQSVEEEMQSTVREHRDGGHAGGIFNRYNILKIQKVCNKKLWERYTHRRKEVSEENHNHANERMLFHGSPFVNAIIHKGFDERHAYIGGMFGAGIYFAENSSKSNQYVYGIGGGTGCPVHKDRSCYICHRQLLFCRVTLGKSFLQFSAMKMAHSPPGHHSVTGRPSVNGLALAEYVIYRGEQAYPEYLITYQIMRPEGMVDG
T3 sequence (Q9H2K2 873-1166): as above

Row | Structure (SMILES) | IC50 [1] | IC50 [2] | IC50 [3] | IC50 [4] | EC50 (Tankyrase)
1 | O=C(c1ccccc1)C1CCN(C(=O)N2CCCc3ccccc32)CC1 [Compound A22, (4-benzoyl-piperidin-1-yl)-(3,4-dihydro-2H-quinolin-1-yl)-methanone] | 300 to 3000 nM | 3000 to 50000 nM | 3000 to 50000 nM | 300 to 3000 nM | 3e-06 to 5e-05 M
2 | COc1ccc(N(C)C(=O)N2CCC(C(=O)c3ccc(OC)c(C)c3)CC2)cc1 [Compound A23, 4-(4-methoxy-3-methyl-benzoyl)-piperidine-1-carboxylic acid (4-methoxy-phenyl)-methyl-amide] | < 300 nM | < 300 nM | 300 to 3000 nM | < 300 nM | < 3e-07 M
3 | COc1ccc(N(C)C(=O)N2CCC(C(=O)c3ccc(OC)c(F)c3)CC2)cn1 [Compound A42, 4-(3-fluoro-4-methoxy-benzoyl)-N-(6-methoxy-3-pyridyl)-N-methyl-piperidine-1-carboxamide] | < 300 nM | < 300 nM | 300 to 3000 nM | < 300 nM | < 3e-07 M
4 | COc1ccc(N(C)C(=O)N2CCC(C(=O)c3cccc(C)c3)CC2)cn1 [Compound A45, N-(6-methoxy-3-pyridyl)-N-methyl-4-(3-methylbenzoyl)piperidine-1-carboxamide] | < 300 nM | 300 to 3000 nM | 300 to 3000 nM | < 300 nM | < 3e-07 M
5 | COc1ccc(N(C)C(=O)N2CCC(C(=O)c3ccc(C)cc3)CC2)cn1 [Compound A46, N-(6-methoxy-3-pyridyl)-N-methyl-4-(4-methylbenzoyl)piperidine-1-carboxamide] | < 300 nM | 300 to 3000 nM | 300 to 3000 nM | < 300 nM | 3e-07 to 3e-06 M
6 | COc1cccc(C(=O)C2CCN(C(=O)N(C)c3ccc(OC)nc3)CC2)c1 [Compound A47, 4-(3-methoxybenzoyl)-N-(6-methoxy-3-pyridyl)-N-methyl-piperidine-1-carboxamide] | < 300 nM | 300 to 3000 nM | 300 to 3000 nM | < 300 nM | 3e-07 to 3e-06 M
7 | COc1ccc(C(=O)C2CCN(C(=O)N(C)c3ccc(OC)nc3)CC2)cc1 [Compound A49, 4-(4-methoxybenzoyl)-N-(6-methoxy-3-pyridyl)-N-methyl-piperidine-1-carboxamide] | < 300 nM | < 300 nM | 300 to 3000 nM | < 300 nM | < 3e-07 M
8 | COc1ccc(N(C)C(=O)N2CCC(C(=O)c3cccc(F)c3)CC2)cn1 [Compound A50, 4-(3-fluorobenzoyl)-N-(6-methoxy-3-pyridyl)-N-methyl-piperidine-1-carboxamide] | < 300 nM | 300 to 3000 nM | 300 to 3000 nM | < 300 nM | 3e-07 to 3e-06 M
9 | COc1ccc(N(C)C(=O)N2CCC(C(=O)c3ccc(F)cc3)CC2)cn1 [Compound A51, 4-(4-fluorobenzoyl)-N-(6-methoxy-3-pyridyl)-N-methyl-piperidine-1-carboxamide] | < 300 nM | 300 to 3000 nM | 300 to 3000 nM | < 300 nM | 3e-07 to 3e-06 M
